According to PMC8718748, “Molecular Dissection of the Primase and Polymerase Activities of Deep-Sea Phage NrS-1 Primase-Polymerase” (Frontiers in Microbiology, 2021):

Legend:
N300 [1] = biological target: T1, N300 (Nitratiruptor phage NrS-1, UniProt M5AAG8); experiment: X-ray crystal structure of complex (SeMet, SAD, […] A); format: binding; conditions: Ca2+ (200 mM calcium acetate in crystals), pH 7.0; active site, 3'-site nucleotide
T1 construct: gene 28; N-terminal 300 residues (Prim/Pol domain + helix bundle domain) of NrSPol; pET28b, 6xHis with TEV site, tag cut for crystals (SeMet for ddCTP crystal); E. coli
T1 sequence (M5AAG8 1-300): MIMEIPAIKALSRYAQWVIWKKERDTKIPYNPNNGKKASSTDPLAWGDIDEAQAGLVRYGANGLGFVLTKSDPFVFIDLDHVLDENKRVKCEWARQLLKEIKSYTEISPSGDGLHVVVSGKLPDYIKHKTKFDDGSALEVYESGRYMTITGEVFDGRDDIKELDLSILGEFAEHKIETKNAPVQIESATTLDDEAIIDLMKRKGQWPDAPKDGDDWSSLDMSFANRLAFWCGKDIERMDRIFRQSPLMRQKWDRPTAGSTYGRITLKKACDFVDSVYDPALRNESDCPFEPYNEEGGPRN

N300 [2] = biological target: T1, N300; experiment: X-ray crystal structure of complex (native, […] A); format: binding; conditions: Mg2+; crystallised with ddCTP and ssDNA, pH 4.5; active site

SMILES	X-ray crystal structure of complex (SeMet, SAD, 2.24 A) (N300 [1])	X-ray crystal structure of complex (native, 1.86 A) (N300 [2])
Nc1ccn([C@H]2CC[C@@H](COP(=O)(O)OP(=O)(O)OP(=O)(O)O)O2)c(=O)n1 [ddCTP]	we determined the crystal structures of N300 in complex with ddCTP	–
O=P(O)(O)OP(=O)(O)O [pyrophosphate]	–	a pyrophosphate (PPi) occupies the active site instead of ddCTP
